Tests used:
Format in all cases: biochemical
[1] = target: ALR (Homo sapiens, UniProt P55789); experiment: Amplex Red-HRP sulfhydryl oxidase assay
[2] = target: T1, Erv2 (Saccharomyces cerevisiae, UniProt Q12284); experiment: Amplex Red-HRP sulfhydryl oxidase assay
T1 sequence (Q12284 1-196): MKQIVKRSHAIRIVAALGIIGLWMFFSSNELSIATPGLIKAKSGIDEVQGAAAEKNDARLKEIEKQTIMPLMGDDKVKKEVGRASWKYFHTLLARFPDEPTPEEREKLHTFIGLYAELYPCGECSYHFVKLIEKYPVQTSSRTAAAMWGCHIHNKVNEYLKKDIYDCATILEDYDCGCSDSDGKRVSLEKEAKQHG

[3] = target: T2, Erv1 (Saccharomyces cerevisiae, UniProt P27882); experiment: Amplex Red-HRP sulfhydryl oxidase assay with recombinant Erv1
T2 sequence (P27882 1-189): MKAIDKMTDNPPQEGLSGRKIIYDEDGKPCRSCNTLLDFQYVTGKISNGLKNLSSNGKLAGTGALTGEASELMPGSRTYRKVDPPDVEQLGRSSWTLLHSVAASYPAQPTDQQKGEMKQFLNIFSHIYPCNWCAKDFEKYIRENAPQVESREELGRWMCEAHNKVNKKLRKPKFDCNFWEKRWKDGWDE

ALR, sequence (P55789 whole entry): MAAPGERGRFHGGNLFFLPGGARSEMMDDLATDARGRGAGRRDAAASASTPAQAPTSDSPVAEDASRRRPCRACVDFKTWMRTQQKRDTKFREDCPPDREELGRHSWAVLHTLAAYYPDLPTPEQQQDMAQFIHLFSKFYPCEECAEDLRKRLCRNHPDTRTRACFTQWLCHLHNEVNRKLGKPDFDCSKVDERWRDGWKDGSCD

Question: What does the source list for Oc1c(Cl)cc(Cl)cc1C=Nc1ccc(Nc2ccccc2)cc1 [MitoBloCK-6]?
Answer: IC50 [1]: 700 nM; IC50 [2]: 1400 nM; IC50 [3]: 900 nM

Reference: publication PMC3726224 (Developmental cell, 2013)
